This data set is described as follows: solvent given as SMILES.

Take `c1ccc(Nc2nc(Nc3ccccc3)nc(Nc3ccc4cc5ccccc5cc4c3)n2)cc1`: the emission maximum is 442 nm (in C1COCCO1), 441 nm (in CC#N), 441 nm (in CCCCOCCCC) and 440 nm (in CCOC(C)=O).
`COc1cccc(C2=c3c(c4ccc(C(C)(C)C)cc4c4cc(C(C)(C)C)ccc34)=[N+]3C2=C(c2ccccc2)c2c(-c4cccc(OC)c4)c4c5ccc(C(C)(C)C)cc5c5cc(C(C)(C)C)ccc5c4n2[B-]3(F)F)c1` registered an emission maximum (in C1CCCCC1) of 727 nm; an emission maximum (in C1CCOC1) of 737 nm; an emission maximum (in CC#N) of 721 nm; an emission maximum (in Cc1ccccc1) of 730 nm; an emission maximum (in ClCCl) of 737 nm.
As for `COc1ccc(/C=C(\c2ccccc2)c2nc3ccccc3s2)cc1`, the emission maximum by setting is: (in C1CCCCC1) 400 nm; (in CO) 420 nm.
Turning to `CN(C)CCN(Cc1c2ccccc2cc2ccccc12)c1ccc([N+](=O)[O-])cc1`, the emission maximum (in C1CCCCC1) came out at 411 nm; the emission maximum (in C1CCOC1) worked out at 414 nm; the emission maximum (in CC#N) is on record as 389 nm; the emission maximum (in CC(C)=O) came out at 387 nm; the emission maximum (in CCO) is 410 nm; the emission maximum (in CN(C)C=O) came to 389 nm. Besides, the emission maximum by setting is: (in CO) 389 nm; (in ClC(Cl)Cl) 415 nm.
`NS(=O)(=O)c1ccc(N2N=C(c3ccc(O)cc3)CC2c2ccc(Br)cc2)cc1` (stereo unspecified) yielded an emission maximum (in C1CCOC1) of 417 nm; an emission maximum (in C1COCCO1) of 417 nm; an emission maximum (in CC#N) of 417 nm; an emission maximum (in CC(C)O) of 423 nm; an emission maximum (in CCO) of 428 nm; an emission maximum (in CCOC(C)=O) of 415 nm. For the same compound, the emission maximum by setting is: (in CN(C)C=O) 422 nm; (in CO) 432 nm; (in CS(C)=O) 424 nm; (in O) 449 nm.
`CN(C)c1ccc(N(C)C)cc1` came in with an emission maximum (in C1CCCCC1) of 394.48 nm.
As for `CCCCCCCCCCCCn1cccc1/C=C/c1ccc(/C=C/c2cccn2CCCCCCCCCCCC)cc1`, for the setting “in Cc1ccccc1”, the emission maximum is given as 443 nm.
On the same count and under the same terms, the result for `COc1cc2c3c4c(c5ccc(C(C)(C)C)cc5c5c(OC)c(OC)c(OC)c(c2c(OC)c1OC)c45)=[N+]1C3=Nc2c3c4cc(OC)c(OC)c(OC)c4c4c(OC)c(OC)c(OC)c5c6cc(C(C)(C)C)ccc6c(c3c54)n2[B-]1(F)F` reads 873 nm.
For `c1ccc2c(c1)[nH]c1ccccc12`, the emission maximum by setting is: (in CC#N) 340 nm; (in CCCCCC) 332 nm; (in CCO) 339 nm.
`CC(C)[Si]1(C(C)C)c2cc(C#N)ccc2-c2ccc(N(c3ccccc3)c3ccccc3)cc21`: the emission maximum was 413 nm (in C1CCCCC1); 500 nm (in CC#N); 482 nm (in CCO); 436 nm (in CCOCC); 500 nm (in CS(C)=O); 470 nm (in ClCCl). The emission maximum (in c1ccccc1) is recorded as 432 nm.
For the setting “in ClCCl”, `N#Cc1cccc(-c2cccc(-c3nc(-c4cccc(-c5cccc(C#N)c5)c4)nc(-c4cccc(-c5cccc(C#N)c5)c4)n3)c2)c1` came in with an emission maximum of 420 nm.
Same read-out and setting: the result for `CC(C)c1cccc(C(C)C)c1N1C(=O)c2cccc3c(Oc4ccc(Cl)cc4)ccc(c23)C1=O` reads 423 nm.
As for `CCN(CC)c1ccc(-c2cc3c(s2)c(C(=O)OC)cc(=O)n3C)cc1`, the emission maximum was 543 nm (in C1CCOC1); 605 nm (in CC#N); 516 nm (in CCO); 604 nm (in CN(C)C=O); 503 nm (in CO); 615 nm (in CS(C)=O). Besides, the emission maximum by setting is: (in Cc1ccccc1) 504 nm; (in ClC(Cl)Cl) 545 nm; (in ClCCl) 562 nm.
As to `CN(C)c1ccc(-c2nc(-c3ccccc3)c3ccccn23)cc1`, the emission maximum reads like this: (in C1CCCCC1) 482 nm; (in CC#N) 509 nm; (in CO) 500 nm; (in ClCCl) 495 nm; (in O) 512 nm.
Under “in CN(C)C=O”, `CCN(CC)c1ccc(-c2nc(Oc3ccc(-c4nc5cc([N+](=O)[O-])ccc5[nH]4)cc3)nc(Oc3ccc(-c4nc5cc([N+](=O)[O-])ccc5[nH]4)cc3)n2)cc1` had an emission maximum of 429 nm.
`CC(C)(C)c1ccc(-n2c(-c3ccc(N(c4ccc(-c5ccc(N(c6ccc(-c7nc8c9ccccc9c9ccccc9c8n7-c7ccc(C(C)(C)C)cc7)cc6)c6ccc(-c7nc8c9ccccc9c9ccccc9c8n7-c7ccc(C(C)(C)C)cc7)cc6)cc5)cc4)c4ccc(-c5nc6c7ccccc7c7ccccc7c6n5-c5ccc(C(C)(C)C)cc5)cc4)cc3)nc3c4ccccc4c4ccccc4c32)cc1`: the emission maximum (in ClCCl) was 430 nm.
Regarding `CC(C)c1cccc(C(C)C)c1N1C(=O)c2cccc3c(Oc4ccc(C(C)(C)C)cc4)ccc(c23)C1=O`, the emission maximum (in ClCCl) was determined as 434 nm.
In turn, `Cc1cc2c(cc1[N+](=O)[O-])NC(=O)CC(=O)N2` yielded an emission maximum (in CS(C)=O) of 350 nm.
For the compound `N#Cc1ccc(/C=C2\C=C(c3ccccc3)OC2=O)cc1`, the emission maximum (in C1COCCO1) is 494 nm.
As to `O=C(N/N=C/c1ccccc1O)c1ccccc1`, the emission maximum runs as follows: (in C1CCOC1) 306 nm; (in CC#N) 373 nm; (in CC(C)=O) 426 nm; (in CCO) 429 nm; (in CN(C)C=O) 458 nm; (in CS(C)=O) 552 nm. Under “in ClCCl”, the emission maximum was 392 nm.
For `O=C(c1ccc(N2c3ccccc3Oc3ccccc32)cc1)c1ccc(N2c3ccccc3Oc3ccccc32)cc1`, the emission maximum is reported as 509 nm (in Cc1ccccc1) and 538 nm (in c1cc(-n2c3ccccc3c3ccccc32)cc(-n2c3ccccc3c3ccccc32)c1).
For `CC1=CC(C)=[N+]2C1=C(c1c3ccccc3cc3ccccc13)c1c(C)cc(C)n1[B-]2(F)F`, the emission maximum came to 512 nm (in CC#N); 515 nm (in CCCCCC); 513 nm (in CCO); 518 nm (in CN(C)C=O); 521 nm (in Cc1ccccc1); 517 nm (in ClCCl).
With `N#Cc1ccc2c(c1)CCc1nc(-c3ccc([N+](=O)[O-])cc3)c3c(c1-2)CCc1cc(C#N)ccc1-3`, the emission maximum runs as follows: (in C1CCOC1) 469 nm; (in CC#N) 525 nm; (in CCCCCC) 413 nm; (in CCOC(C)=O) 452 nm; (in CO) 475 nm; (in CS(C)=O) 510 nm. The emission maximum was found to be 443 nm (in Cc1ccccc1) and 475 nm (in ClCCl).
As for `CCCCc1ccc(-n2c3c4cc(F)ccc4nc(-c4ccc(OC)cc4)c3c3c2c2c(-c4ccc(OC)cc4)nc4ccc(F)cc4c2n3-c2ccc(CCCC)cc2)cc1`, the emission maximum (in ClC(Cl)Cl) came to 527 nm.
Take `COc1ccc(C(=O)OCc2ccc3c4cccc5cccc(c6cccc2c63)c54)cc1`: the emission maximum (in CCO) came out at 447 nm.
Where the note is “in ClCCl”, `C[Si]1(C)c2ccccc2-c2cc3c(cc21)-c1ccccc1[Si]3(C)C` returned an emission maximum of 384 nm.
With `O=c1oc2ccc3ccccc3c2nc1-c1ccc(Cl)cc1`, the emission maximum (in c1ccccc1) turned out to be 465 nm.
In the case of `CC(=O)c1cc(=O)n(C)c2cc(-c3ccc(N(C)C)cc3)sc12`, the emission maximum by setting is: (in CC#N) 504 nm; (in ClCCl) 610 nm.
On to `COC(=O)C(Cc1ccc2oc(-c3ccncc3)nc2c1)NC(=O)OC(C)(C)C` (stereo unspecified), for which the emission maximum (in CC1CCCCC1) stood at 356.74 nm, the emission maximum (in CC#N) was found to be 374.95 nm and the emission maximum (in CO) turned out to be 384.74 nm.
`CCCCCCc1ccc2c3c(ccc2c1)O[B-](F)(F)[N+](c1cc([N+]2=Cc4c(ccc5cc(CCCCCC)ccc45)O[B-]2(F)F)cc([N+]2=Cc4c(ccc5cc(CCCCCC)ccc45)O[B-]2(F)F)c1)=C3` yielded an emission maximum (in C1CCOC1) of 490 nm, an emission maximum (in CC#N) of 495 nm, an emission maximum (in Cc1ccccc1) of 493 nm and an emission maximum (in ClCCl) of 495 nm.
Compound `Cc1ccccc1N1c2c(sc3ccccc23)Sc2sc3ccccc3c21` had an emission maximum (in ClCCl) of 583 nm.
Compound `COc1ccc(-c2csc(/C(C#N)=C/c3c(Cl)cccc3Cl)n2)cc1` showed an emission maximum (in CC#N) of 550 nm.
On to `c1ccc(C[n+]2cc3ccc4c[n+](Cc5ccccc5)cc5ccc(c2)c3c45)cc1`, for which the emission maximum (in CC#N) turned out to be 427 nm.
The compound `CCCCCCCCCCCCn1cccc1/C=C/c1cc(OCCCC)c(/C=C/c2cccn2CCCCCCCCCCCC)cc1OCCCC` registered an emission maximum (in Cc1ccccc1) of 472 nm.
On to `c1ccc(-c2nc(-c3cc(-n4c5ccccc5c5ccccc54)cc(-n4c5ccccc5c5ccccc54)c3)nc(-c3cc(-n4c5ccccc5c5ccccc54)cc(-n4c5ccccc5c5ccccc54)c3)n2)cc1`, for which the emission maximum came to 438.78 nm (in C1CCCCC1), 595.92 nm (in C1CCOC1) and 504.9 nm (in Cc1ccccc1).
Compound `O=C(O)C1=C(C(=O)O)C2=C[C@H]3c4ccccc4[C@]2([Se]1)c1ccccc13` showed an emission maximum (in ClCCl) of 507 nm.
The same measure, in the same setting: to `CCOCCOCCOC(=O)/C=C/C1=CC2=C(c3c(C)cc(C)cc3C)c3cccn3[B-](F)(F)[N+]2=C1` belongs 567 nm.
As to `O=Cc1cc(O)ccc1O`, the emission maximum reads like this: (in CC(C)=O) 423 nm; (in CCCO) 484 nm; (in CCO) 487 nm; (in CN(C)C=O) 440 nm; (in CN(C)P(=O)(N(C)C)N(C)C) 438 nm; (in CNC=O) 479 nm. Further, the emission maximum reads like this: (in CS(C)=O) 446 nm; (in NC=O) 490 nm.

Values taken from the Deep4Chem optical property database.
